The values that follow come from patent publication US20220402948A1, “EGFR INHIBITOR, COMPOSITION AND PREPARATION METHOD THEREFOR” (BETTA PHARMACEUTICALS CO., LTD., priority 2019, published 2022).

The target in one test is IGF1R (Homo sapiens, UniProt P08069). In words: IGF1R kinase test (mobility variation analysis, Caliper EZ Reader). The settings on record: kinase enzymatic activity, Table 1; read-out: EGFR IGF1R IC50. Type of test: biochemical. In short, it runs like this: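 Kinase preincubated 10 min at room temperature with compound (10-point 3-fold series, top 3000 nM), then ATP and substrate added and reacted at room temperature. Substrate conversion read by mobility-shift (Caliper EZ Reader); % inhibition vs no-enzyme and no-compound controls fitted to variable-slope curve for IC50.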
Sequence of IGF1R (P08069 31-1367, species assumed): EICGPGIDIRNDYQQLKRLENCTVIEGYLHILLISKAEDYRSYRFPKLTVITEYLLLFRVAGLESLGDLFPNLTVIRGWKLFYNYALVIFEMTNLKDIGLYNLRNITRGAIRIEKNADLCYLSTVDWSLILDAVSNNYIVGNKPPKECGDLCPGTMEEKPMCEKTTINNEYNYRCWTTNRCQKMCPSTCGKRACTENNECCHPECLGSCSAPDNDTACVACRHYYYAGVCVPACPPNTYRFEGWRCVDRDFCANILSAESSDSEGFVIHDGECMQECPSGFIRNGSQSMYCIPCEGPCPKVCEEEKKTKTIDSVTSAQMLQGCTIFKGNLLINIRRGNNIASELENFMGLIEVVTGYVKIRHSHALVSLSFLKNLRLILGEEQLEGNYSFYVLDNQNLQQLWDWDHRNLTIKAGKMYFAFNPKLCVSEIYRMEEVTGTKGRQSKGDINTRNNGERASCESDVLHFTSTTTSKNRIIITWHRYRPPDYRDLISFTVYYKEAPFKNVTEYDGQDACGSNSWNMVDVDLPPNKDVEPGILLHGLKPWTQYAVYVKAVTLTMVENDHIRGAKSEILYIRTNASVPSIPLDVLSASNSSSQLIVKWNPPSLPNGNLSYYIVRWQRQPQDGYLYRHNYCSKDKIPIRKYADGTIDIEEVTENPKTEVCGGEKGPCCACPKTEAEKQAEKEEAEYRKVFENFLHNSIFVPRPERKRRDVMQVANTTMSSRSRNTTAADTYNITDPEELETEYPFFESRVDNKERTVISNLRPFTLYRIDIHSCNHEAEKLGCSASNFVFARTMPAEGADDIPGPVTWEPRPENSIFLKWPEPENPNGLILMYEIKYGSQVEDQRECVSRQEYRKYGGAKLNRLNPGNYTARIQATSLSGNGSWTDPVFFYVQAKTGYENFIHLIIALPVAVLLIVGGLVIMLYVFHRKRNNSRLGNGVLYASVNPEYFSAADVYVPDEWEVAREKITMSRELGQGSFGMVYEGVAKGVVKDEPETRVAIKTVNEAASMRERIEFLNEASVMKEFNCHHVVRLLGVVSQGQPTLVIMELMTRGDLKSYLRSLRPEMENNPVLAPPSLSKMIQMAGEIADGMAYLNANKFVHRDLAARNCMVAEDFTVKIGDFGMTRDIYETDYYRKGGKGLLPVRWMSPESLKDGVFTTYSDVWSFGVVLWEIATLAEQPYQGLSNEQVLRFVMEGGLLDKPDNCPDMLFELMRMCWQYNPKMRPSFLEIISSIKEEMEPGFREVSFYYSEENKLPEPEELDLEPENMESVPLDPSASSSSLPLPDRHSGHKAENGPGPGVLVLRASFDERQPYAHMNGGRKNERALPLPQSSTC

The target of test [1] is Ba/F3 cells with EGFR Δ19del/T790M/C797S mutation gene stably overexpressed (Homo sapiens, UniProt P00533, T790M/C797S, cells depend on it, form not given). In words: Ba/F3-Δ19del/T790M/C797S cell proliferation assay (CellTiter Glo, 72 hours). In kind it is cell-based. The settings on record: Table 2, read-out: EGFR Δ19del/T790M/C797S IC50. The essentials: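 Ba/F3 cells stably overexpressing wild-type EGFR or EGFR Δ19del/T790M/C797S were seeded at 2000 cells/well and incubated 72 h with compound. Viability was read by CellTiter-Glo luminescence, and IC50 came from a four-parameter logistic fit of signal against log concentration.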
Sequence of Ba/F3 cells with EGFR Δ19del/T790M/C797S mutation gene stably overexpressed (P00533 with tags, fused parts or gaps DEL746-750/T790M/C797S, form open): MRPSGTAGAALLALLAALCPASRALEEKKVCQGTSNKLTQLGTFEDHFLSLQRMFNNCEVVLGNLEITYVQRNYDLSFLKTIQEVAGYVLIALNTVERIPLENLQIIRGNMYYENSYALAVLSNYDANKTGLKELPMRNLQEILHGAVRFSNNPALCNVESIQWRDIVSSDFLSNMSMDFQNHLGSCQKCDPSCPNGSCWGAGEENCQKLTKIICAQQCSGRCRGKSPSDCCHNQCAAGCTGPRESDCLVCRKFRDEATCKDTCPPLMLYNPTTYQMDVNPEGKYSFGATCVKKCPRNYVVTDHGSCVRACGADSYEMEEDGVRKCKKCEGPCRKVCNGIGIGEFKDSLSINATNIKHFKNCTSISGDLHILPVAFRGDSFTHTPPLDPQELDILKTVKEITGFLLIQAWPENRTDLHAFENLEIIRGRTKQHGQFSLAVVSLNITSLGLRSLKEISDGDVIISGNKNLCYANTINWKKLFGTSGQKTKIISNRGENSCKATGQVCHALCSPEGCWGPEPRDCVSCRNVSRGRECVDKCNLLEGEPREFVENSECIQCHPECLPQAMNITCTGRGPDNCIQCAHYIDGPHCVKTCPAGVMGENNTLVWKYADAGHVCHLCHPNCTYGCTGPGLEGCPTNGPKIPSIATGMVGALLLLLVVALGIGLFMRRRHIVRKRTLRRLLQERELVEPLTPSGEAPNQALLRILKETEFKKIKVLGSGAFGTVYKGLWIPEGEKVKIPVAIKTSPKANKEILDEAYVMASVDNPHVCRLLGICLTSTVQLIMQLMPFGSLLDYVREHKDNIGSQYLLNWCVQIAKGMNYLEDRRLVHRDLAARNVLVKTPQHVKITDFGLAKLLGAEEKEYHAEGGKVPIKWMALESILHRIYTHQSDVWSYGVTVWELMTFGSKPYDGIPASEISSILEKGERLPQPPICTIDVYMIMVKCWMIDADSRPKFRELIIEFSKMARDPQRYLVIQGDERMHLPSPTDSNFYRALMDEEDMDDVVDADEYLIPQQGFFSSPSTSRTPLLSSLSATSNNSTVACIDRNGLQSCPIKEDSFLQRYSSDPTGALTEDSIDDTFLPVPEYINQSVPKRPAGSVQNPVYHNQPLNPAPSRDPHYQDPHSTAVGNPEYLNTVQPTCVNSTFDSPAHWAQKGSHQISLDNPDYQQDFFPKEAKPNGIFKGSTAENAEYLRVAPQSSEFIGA
Background: In ATP-based viability assays light output follows the ATP content of the culture.

In another test the target is EGFR WT (Homo sapiens, UniProt P00533). The test can be described thus: EGFR WT kinase test (mobility variation analysis, Caliper EZ Reader). Type of test: biochemical. The settings on record: kinase enzymatic activity, Table 1. In short, it runs like this: (§1)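 Kinase pre-incubated with compound 10 minutes at room temperature, then ATP plus peptide substrate added; substrate conversion read by mobility shift after stop solution. Percent inhibition normalized to no-compound and no-enzyme controls; IC50 from variable-slope log(inhibitor) fit.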

In a further test the test system is A431. In words: A431 cell proliferation assay (CellTiter Glo, 72 hours). Type of test: cell-based. Conditions: Homo sapiens, A-431, 72 h, cell proliferation, A431, 72 hours, Table 2; read-out: A431 IC50. In short, it runs like this:
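A431 cells (2000/well) exposed 72 h to compound at 1000 nM down to 0.2 nM in 3-fold steps, 0.1% DMSO (0.5% for some series). Viability by CellTiter-Glo luminescence; IC50 by four-parameter nonlinear regression.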

In test [2] the target is Ba/F3-EGFR wild-type cell line (Homo sapiens, UniProt P00533). The test can be described thus: Ba/F3-EGFR wild-type cell proliferation assay (CellTiter Glo, 72 hours). Type of test: cell-based. The settings on record: Table 2, read-out: EGFR WT IC50. Here is the method:
Cell line: Ba/F3 cells with EGFR Δ19del/T790M/C797S mutation gene stably overexpressed named Ba/F3-Δ119del/T90M/C797S, and A431 and Ba/F3-EGFR wild-type cell line.
a) Centrifuge the growth cells in logarithmic phase at 1000 rpm for 5 minutes, resuspend the cells in culture medium, and then count the cells;
b) Inoculate the cells into a 96-well cell culture plate with a density of 2000 cells/well;
b) Incubate cells in an incubator for another 72 hours.
a) Take out the 96-well cell culture plate and add 50 μl CTG reagent (CellTiter Glo kit, promega, Cat #G7573);
b) Shake the plate for 2 minutes and let cool at room temperature for 10 minutes;
c) Read luminous signal value with PerkinElmer reader,
Analysis of Experimental Data
The data were analyzed by GraphPad Prism 6.0 software to obtain the fitting curve of compound activity.
Y=Min+(Max−Min)/(1+10^((Log IC50−X)*slope));
X: Logarithm of compound concentration; Y: luminous signal.

The target of the next test is EGFRΔ19del/T790M/C797S (Homo sapiens, UniProt P00533, T790M/C797S, form not given). The test can be described thus: EGFR Δ19del/T790M/C797S kinase test (mobility variation analysis, Caliper EZ Reader). Type of test: biochemical. Conditions: kinase enzymatic activity, Table 1. In short, it runs like this:
as §1

A value given as a limit tells only on which side of the number the result lay.

Sequence of EGFRΔ19del/T790M/C797S (P00533 with tags, fused parts or gaps DEL746-750/T790M/C797S, form open): as above
Sequence of Ba/F3-EGFR wild-type cell line (P00533 whole entry, stated change not applied): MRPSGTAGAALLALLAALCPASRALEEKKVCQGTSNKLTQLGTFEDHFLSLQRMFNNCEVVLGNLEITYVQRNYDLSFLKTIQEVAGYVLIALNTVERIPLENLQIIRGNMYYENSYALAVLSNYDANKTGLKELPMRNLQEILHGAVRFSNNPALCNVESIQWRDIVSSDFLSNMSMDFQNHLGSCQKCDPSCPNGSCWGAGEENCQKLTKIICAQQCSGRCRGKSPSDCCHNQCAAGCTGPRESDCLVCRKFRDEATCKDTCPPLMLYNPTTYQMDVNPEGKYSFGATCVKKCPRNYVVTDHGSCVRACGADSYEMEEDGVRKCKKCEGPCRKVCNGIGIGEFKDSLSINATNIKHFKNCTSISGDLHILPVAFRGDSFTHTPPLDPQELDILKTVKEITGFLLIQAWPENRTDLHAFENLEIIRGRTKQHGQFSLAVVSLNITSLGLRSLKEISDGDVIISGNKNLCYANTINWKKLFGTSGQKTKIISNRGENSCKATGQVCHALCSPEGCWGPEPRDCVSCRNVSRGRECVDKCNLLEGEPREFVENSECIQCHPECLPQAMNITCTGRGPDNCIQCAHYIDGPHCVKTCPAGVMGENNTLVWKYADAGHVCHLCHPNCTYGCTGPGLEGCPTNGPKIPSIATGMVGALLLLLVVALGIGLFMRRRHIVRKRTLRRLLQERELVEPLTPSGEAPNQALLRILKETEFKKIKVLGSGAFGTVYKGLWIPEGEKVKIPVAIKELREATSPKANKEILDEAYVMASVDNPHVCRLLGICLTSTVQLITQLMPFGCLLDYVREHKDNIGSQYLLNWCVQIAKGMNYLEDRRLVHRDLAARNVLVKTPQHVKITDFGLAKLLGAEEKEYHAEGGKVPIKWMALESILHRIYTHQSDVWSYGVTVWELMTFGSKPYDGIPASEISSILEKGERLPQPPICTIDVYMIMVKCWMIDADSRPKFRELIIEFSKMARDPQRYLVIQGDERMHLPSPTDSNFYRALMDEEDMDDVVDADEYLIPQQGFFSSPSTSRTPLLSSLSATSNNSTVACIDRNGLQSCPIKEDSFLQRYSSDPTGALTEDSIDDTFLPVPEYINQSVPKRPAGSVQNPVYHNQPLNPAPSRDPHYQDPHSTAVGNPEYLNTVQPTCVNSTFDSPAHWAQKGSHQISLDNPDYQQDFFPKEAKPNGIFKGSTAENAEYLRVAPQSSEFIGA

As for `CCc1cc(Nc2ncc(Br)c(Nc3ccc(-c4ccccc4)cc3P(C)(C)=O)n2)c(OC)cc1N1CCC(N2CCN(C)CC2)CC1` [Compound 1], the IC50 – broadly, the point on the concentration scale where inhibition reaches its midpoint – is 91.5 nM on IGF1R, 10.3 nM on EGFR WT, 935 nM in the test on A431 and 0.5 nM on EGFRΔ19del/T790M/C797S. The GI50 in test [1] worked out at 2.2 nM; in test [2] it was 171 nM.
Consider `CCc1cc(Nc2ncc(Br)c(Nc3ccc(-c4cnn(CC)c4)cc3P(C)(C)=O)n2)c(OC)cc1N1CCC(N2CCN(C)CC2)CC1` [Compound 4, (2-((5-Bromo-2-((5-ethyl-2-methoxy-4-(4-(4-methylpiperazin-1-yl)piperidin-1-yl)phenyl)amino)pyrimidin-4-yl)amino)-5-(1-ethyl-1hydro-pyrazol-4-yl)phenyl)dimethylphosphine oxide], for which the IC50 on IGF1R is 71.9 nM; in the test with A431 it was 465 nM; on EGFRΔ19del/T790M/C797S, 0.6 nM. For the same compound, the GI50 in test [1] was 1.9 nM; in test [2], 84.3 nM.
`CCc1cc(Nc2ncc(Br)c(Nc3ccc(-c4cnn(C)n4)cc3P(C)(C)=O)n2)c(OC)cc1N1CCC(N2CCN(C)CC2)CC1` [Compound 8, (2-((5-Bromo-2-((5-ethyl-2-methoxy-4-(4(4-methylpiperazin-1-yl)piperidin-1-yl)phenyl)amino)pyrimidin-4-yl)amino)-5-(2-methyl-2H-1,2,3-triazol-4-yl)phenyl)dimethylphosphine oxide]: the IC50 at IGF1R was determined as 67.9 nM; at EGFR WT, 10.8 nM; with A431 it was 773 nM; at EGFRΔ19del/T790M/C797S, 0.4 nM. Besides, the GI50 is 3.3 nM in test [1] and 181 nM in test [2].
As to `CCc1cc(Nc2ncc(Cl)c(Nc3ccc(-c4ncc(OC)cn4)cc3P(C)(C)=O)n2)c(OC)cc1N1CCC(N2CCN(C)CC2)CC1` [Compound 20, (2-((5-Chloro-2-((5-ethyl-2-methoxy-4-(4-(4-methylpiperazin-1-yl)piperidin-1-yl)phenyl)amino)pyrimidin-4-yl)amino)-5-(5-methoxypyrimidin-2-yl)phenyl)dimethylphosphine oxide], the IC50 on IGF1R is 120 nM; against EGFR WT, 19 nM; with A431, 1470 nM; against EGFRΔ19del/T790M/C797S, 0.5 nM. Besides, the GI50 in test [1] was 11.8 nM; in test [2], 365 nM.
Turning to `CCc1cc(Nc2ncc(Br)c(Nc3ccc(-c4ncccn4)cc3P(C)(C)=O)n2)c(OC)cc1N1CCC(N2CCN(C)CC2)CC1` [Compound 26, (2-((5-Bromo-2-((5-ethyl-2-methoxy-4-(4-(4-methylpiperazin-1-yl)piperidin-1-yl)phenyl)amino)pyrimidin-4-yl)amino)-5-(pyrimidin-2-yl)phenyl)dimethylphosphine oxide], the 50% inhibitory concentration (IC50) on IGF1R was 102 nM; against EGFR WT it was 18.9 nM; with A431, 1030 nM; against EGFRΔ19del/T790M/C797S, 0.4 nM. The GI50 is 5.1 nM in test [1] and 162 nM in test [2].
Take `CCc1cc(Nc2ncc(Br)c(Nc3ccc(-c4ncco4)cc3P(C)(C)=O)n2)c(OC)cc1N1CCC(N2CCN(C)CC2)CC1` [Compound 27]: the IC50 on IGF1R is 72 nM; at EGFR WT, 15.6 nM; in the test with A431, 871 nM; at EGFRΔ19del/T790M/C797S, 0.3 nM. In addition, the GI50 in test [1] was 7.5 nM; in test [2], 159 nM.
`CCc1cc(Nc2ncc(Br)c(Nc3ccc(-c4cscn4)cc3P(C)(C)=O)n2)c(OC)cc1N1CCC(N2CCN(C)CC2)CC1` [Compound 28, (2-((5-Bromo-2-((5-ethyl-2-methoxy-4-(4-(4-methylpiperazin-1-yl)piperidin-1-yl)phenyl)amino)pyrimidin-4-yl)amino)-5-(thiazol-4-yl)phenyl)dimethylphosphine oxide]: the half-inhibitory concentration (IC50) worked out at 61 nM on IGF1R, 12 nM on EGFR WT, 778 nM in the test with A431 and 0.2 nM against EGFRΔ19del/T790M/C797S. Moreover, the figures for the GI50 in test [1] and in test [2] were 9.9 nM and 171 nM, respectively.
As to `CCc1cc(Nc2ncc(Br)c(Nc3ccc(-c4ncc(F)cn4)cc3P(C)(C)=O)n2)c(OC)cc1N1CCC(N2CCN(C)CC2)CC1` [Compound 29, (2-((5-Bromo-2-((5-ethyl-2-methoxy-4-(4-(4-methylpiperazin-1-yl)piperidin-1-yl)phenyl)amino)pyrimidin-4-yl)amino)-5-(5-fluoropyrimidin-2-yl)phenyl)dimethylphosphine oxide], the IC50 turned out to be 80 nM at IGF1R, 16 nM on EGFR WT, 2660 nM in the test with A431 and 0.2 nM on EGFRΔ19del/T790M/C797S. Besides, the GI50 in test [1] is 13.4 nM; in test [2] it was 194 nM.
Take `CCc1cc(Nc2ncc(Br)c(Nc3ccc(-c4ncn(C)n4)cc3P(C)(C)=O)n2)c(OC)cc1N1CCC(N2CCN(C)CC2)CC1` [Compound 31, (2-((5-Bromo-2-((5-ethyl-2-methoxy-4-(4-(4-methylpiperazin-1-yl)piperidin-1-yl)phenyl)amino)pyrimidin-4-yl)amino)-5-(1-methyl-1H-1,2,4-triazol-3-yl)phenyl)dimethylphosphine oxide]: the half-maximal inhibitory concentration (IC50) on IGF1R was 179 nM; at EGFR WT, 27.6 nM; with A431, 1030 nM; against EGFRΔ19del/T790M/C797S, 0.3 nM. In addition, the results for the GI50 in test [1] and in test [2] were 20.8 nM and 559 nM, respectively.
On to `CCc1cc(Nc2ncc(Cl)c(Nc3ccc(-c4cnccn4)cc3P(C)(C)=O)n2)c(OC)cc1N1CCC(N2CCN(C)CC2)CC1` [Compound 32, (2-((5-Chloro-2-((5-ethyl-2-methoxy-4-(4-(4-methylpiperazin-1-yl)piperidin-1-yl)phenyl)amino)pyrimidin-4-yl)amino)-5-(pyrazin-2-yl)phenyl)dimethylphosphine oxide], for which the IC50 at IGF1R stood at 184 nM; against EGFR WT it was 19.3 nM; in the test with A431, 749 nM; on EGFRΔ19del/T790M/C797S it was 0.4 nM. In addition, the values for the GI50 in test [1] and in test [2] were 17.8 nM and 196 nM, respectively.
Consider `CCc1cc(Nc2ncc(Br)c(Nc3ccc(-c4ccc(C)nn4)cc3P(C)(C)=O)n2)c(OC)cc1N1CCC(N2CCN(C)CC2)CC1` [Compound 33, (2-((5-Bromo-2-((5-ethyl-2-methoxy-4-(4-(4-methylpiperazin-1-yl)piperidin-1-yl)phenyl)amino)pyrimidin-4-yl)amino)-5-(6-methylpyridazin-3-yl)phenyl)dimethylphosphine oxide], for which the IC50 at IGF1R came out at 177 nM; against EGFR WT, 27.3 nM; in the test with A431 it was 962 nM; on EGFRΔ19del/T790M/C797S, 0.3 nM. Also, the GI50 in test [1] was found to be 13.5 nM; in test [2], 437 nM.
Turning to `CCc1cc(Nc2ncc(Br)c(Nc3ccc(-c4cnc(OC)nc4)cc3P(C)(C)=O)n2)c(OC)cc1N1CCC(N2CCN(C)CC2)CC1` [Compound 34, (2-((5-Bromo-2-((5-ethyl-2-methoxy-4-(4-(4-methylpiperazin-1-yl)piperidin-1-yl)phenyl)amino)pyrimidin-4-yl)amino)-5-(2-methoxypyrimidin-5-yl)phenyl)dimethylphosphine oxide], the IC50 at IGF1R is 91.1 nM; against EGFR WT it was 29.7 nM; with A431, 5150 nM; on EGFRΔ19del/T790M/C797S, 0.2 nM. Further, the results for the GI50 in test [1] and in test [2] were 5.8 nM and 180 nM, respectively.
`CCc1cc(Nc2ncc(Br)c(Nc3ccc(-c4cnc(N(C)C)cn4)cc3P(C)(C)=O)n2)c(OC)cc1N1CCC(N2CCN(C)CC2)CC1` [Compound 35, (2-((5-Bromo-2-((5-ethyl-2-methoxy-4-(4-(4-methylpiperazin-1-yl)piperidin-1-yl)phenyl)amino)pyrimidin-4-yl)amino)-5-(5-(dimethylamino)pyrazin-2-yl)phenyl)dimethylphosphine oxide]: the 50% inhibitory concentration (IC50) was 238 nM at IGF1R, 21.5 nM at EGFR WT, more than 10000 nM with A431 and 0.5 nM on EGFRΔ19del/T790M/C797S. In addition, the values for the GI50 in test [1] and in test [2] were 3.1 nM and 259 nM, respectively.
As for `COc1cc(N2CCC(N3CCN(C)CC3)CC2)ccc1Nc1ncc(Cl)c(Nc2ccc(C)cc2P(C)(C)=O)n1` [compound 1, reference compound], the IC50 is 44.1 nM on IGF1R, 60 nM on EGFR WT and 598 nM in the test with A431. The GI50 turned out to be 49.9 nM in test [1] and 836 nM in test [2].
